How the values were obtained:
[1] = target: peripheral benzodiazepine receptor ("PBR") (Homo sapiens, UniProt P30536); conditions: cited from earlier work
[2] = test system: central benzodiazepine receptor; conditions: cited from earlier work
[3] = target: mitochondrial F1Fo-ATPase; conditions: cited from earlier work
[4] = target: T1, mitochondrial F0F1 ATPase (Homo sapiens, UniProt P48047); test: ATP synthesis; assay type: biochemical; conditions: compared with solvated Bz-423 (FIG. 12)
[5] = target: T1, mitochondrial F0F1 ATPase; test: ATP hydrolysis; assay type: biochemical; conditions: compared with solvated Bz-423 (FIG. 11)
cells = test: Cell viability; assay type: cell-based; conditions: compared with solvated Bz-423 (FIG. 13)
[6] = Simulated gastric fluid solubility at 37° C.; assay type: physicochemical; conditions: versus solvated Bz-423
[7] = Water solubility at 37° C.; conditions: versus solvated Bz-423
rodents = conditions: two daily doses; cited from earlier work

peripheral benzodiazepine receptor ("PBR"), sequence (P30536 whole entry, species assumed): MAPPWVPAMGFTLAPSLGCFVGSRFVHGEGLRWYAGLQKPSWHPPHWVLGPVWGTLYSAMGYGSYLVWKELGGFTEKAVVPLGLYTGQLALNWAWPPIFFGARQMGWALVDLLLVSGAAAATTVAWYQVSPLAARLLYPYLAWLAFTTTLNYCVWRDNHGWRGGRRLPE

Which results are given for CN1C(=O)C(Cc2ccc3ccccc3c2)N=C(c2ccc(O)cc2)c2cc(Cl)ccc21 (stereo not shown) [Bz-423]?
Kd [1]: ~1000 nM; binding to the central benzodiazepine receptor [2]: prevents binding to the central benzodiazepine receptor; Ki [3]: ~9000 nM

Which ATP synthesis [4] does the source give for CN1C(=O)C(Cc2ccc3ccccc3c2)N=C(c2ccc(O)cc2)c2cc(Cl)ccc21 (stereo not shown) [anhydrous BZ-423 ball milled] here?
Its ATP synthesis is “not inhibiting cell synthesis”.

What about the ATP hydrolysis [5] of the same compound?
The ATP hydrolysis was “capable of inhibiting ATP hydrolysis”.

And the cell viability (cells)?
The cell viability was “not affecting cell viability”.

And the “solubility in simulated gastric fluid, comparison in words” value [6]?
Its value is “more soluble than solvated Bz-423”.

And the “water solubility, comparison in words” value [7]?
Its value is “more soluble than solvated Bz-423”.

With CC[C@H]1/C=C/C=C/C[C@@H](C)[C@H](O)[C@@](C)(O)C(=O)[C@@H](C)[C@H](O)[C@@H](C)C(=O)[C@@H](C)[C@H](O)[C@@H](C)/C=C/C(=O)O[C@@H]2[C@H](C)[C@H](CC1)O[C@]1(CC[C@H](C)[C@H](C[C@@H](C)O)O1)[C@H]2C [oligomycin, reference compound] as the compound, how does the LD50 (rodents) read?
Its LD50 is 0.5 mg/kg.

What about the IC50 [3] of the same compound?
The IC50 was 10 nM.

From patent US7994313B2 (priority 2005, dated 2011)
